Results taken from patent US6043231A, “Inhibition of excessive phospholipase A2 activity and/or production by non-antimicrobial tetracyclines” (The Research Foundation of State Univ. of New York, priority 1993, dated 2000).

Tests used:
Assay type in all cases: biochemical
[1] = molecular target: T1, recombinant human PLA2 (snpPLA2) (Homo sapiens, UniProt P14555); assay: PLA2 inhibition, radiolabelled E. coli assay, recombinant human PLA2
T1 sequence (P14555 21-144): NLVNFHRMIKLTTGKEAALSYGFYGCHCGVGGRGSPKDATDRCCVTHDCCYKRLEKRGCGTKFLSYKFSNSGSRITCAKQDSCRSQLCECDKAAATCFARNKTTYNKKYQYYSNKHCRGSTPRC
Procedure: (§1) Six different chemically-modified tetracyclines, including CMT-1 (4-dedimethylaminotetracycline), CMT-2 (tetracyclinonitrile), CMT-3 (6-demethyl-6-deoxy-4-de-dimethylaminotetracycline), CMT-4 (4-de-dimethylamino-7-chloro-tetracycline), CMT-5 (pyrazole analog) and CMT-6 (4-hydroxy-4-dedimethylaminotetracycline), were examined for their ability to inhibit PLA2 activity in vitro. The sources of PLA2 that were tested included recombinant human PLA2, human pancreatic and porcine pancreatic PLA2 and Naja naja PLA2. […] Various concentrations of CMTs, ranging from 5-100 μg/ml, were preincubated with the different PLA2 enzymes for 30 minutes and the mixture was tested for PLA2 activity using a known E. coli assay method (see Arthritis and Rheumatism, 34 Supp. 9: p. S160 (abst C167)).
(§2) A chemically-modified tetracycline, 4-dedimethyl-amino-7-dimethylaminotetracycline (CMT-10), was examined for its ability to inhibit PLA2 activity in vitro. The sources of PLA2 that were tested included were recombinant human PLA2 (snpPLA2), human pancreatic and porcine pancreatic PLA2 and Naja naja PLA2. […] Various concentrations of CMT-10, ranging from 5-100 μg/ml, were preincubated with the different PLA2 enzymes for 30 minutes and the mixture was tested for PLA2 activity using a known E. coli assay method (see Arthritis and Rheumatism, 34 Supp. 9: p. S160 (abst C167)).
(§3) In particular, [^14 C]Oleic acid-labelled Escherichia coli (strain K12 C600) were used as the substrate. This substrate has been characterized with respect to phospholipid composition and distribution of radiolabel. Reaction mixtures contained 10 mg bovine serum albumin, 2 mM CaCl2, 2.8×10^8 radiolabelled E. coli and 0.1 M Tris-HCl buffer, pH 7.5 in a total volume of 1.5 ml. Reaction mixtures were incubated at 37° C. for 30 min. The reaction was terminated by filtration through a 0.45 μm Millipore filter, thereby retaining unhydrolysed E. coli membranes, and allowing the [^14 C]oleic acid bound to the BSA carrier, released as a result of PLA2 hydrolysis, to pass through the filter. Assays were performed in duplicate and values shown represent the mean of two determinations with a SD<5% of the mean. Assays were performed in substrate excess and enzyme activities were corrected for non-enzymatichydrolysis. One unit of PLA2 activity is defined as the hydrolysis of 56 pmol of phospholipid substrate (representing 1% of total E. coli phospholipid) in 30 min at 37° C.

human pancreatic PLA2 = molecular target: T2, human pancreatic PLA2 (Homo sapiens, UniProt P04054); assay: PLA2 inhibition, E. coli assay, human pancreatic PLA2
T2 construct: labelled E. coli membrane substrate
T2 sequence (P04054 23-148): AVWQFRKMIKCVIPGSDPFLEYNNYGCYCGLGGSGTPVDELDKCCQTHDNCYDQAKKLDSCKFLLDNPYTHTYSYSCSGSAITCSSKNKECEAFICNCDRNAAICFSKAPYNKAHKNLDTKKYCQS
Procedure: as §1, §2, §3

porcine pancreatic PLA2 = molecular target: T3, porcine pancreatic PLA2 (Sus scrofa, UniProt P00592); assay: PLA2 inhibition, E. coli assay, porcine pancreatic PLA2
T3 construct: labelled E. coli membrane substrate
T3 sequence (P00592 23-146): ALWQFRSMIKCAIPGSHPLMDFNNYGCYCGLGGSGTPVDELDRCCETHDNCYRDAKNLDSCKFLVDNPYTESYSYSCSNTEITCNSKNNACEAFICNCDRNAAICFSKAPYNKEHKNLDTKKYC
Procedure: as §1, §2, §3

[2] = concentrations of 25 μg/ml or greater
[3] = recombinant human PLA2, 30 min preincubation

| IC50 ([1]; recombinant human PLA2, 30 min preincubation, read-out: IC50 (concentration of the drug required to inhibit 50% of PLA2) (converted)) | SMILES | PLA2-inhibitory activity [1, 2] | IC50 (concentration of the drug required to inhibit 50% of PLA2) [1, 3] | inhibition of human pancreatic PLA2 (human pancreatic PLA2) | % inhibition (human pancreatic PLA2; 30 μg/ml, human pancreatic PLA2) | inhibition of porcine pancreatic PLA2 (porcine pancreatic PLA2) | PLA2-inhibitory activity ([1]; highest concentrations tested (range 5-100 μg/ml)) |
| --- | --- | --- | --- | --- | --- | --- | --- |
|  | CN(C)c1ccc(O)c2c1C(C)(O)C1CC3CC(O)=C(C(N)=O)C(=O)C3(O)C(O)=C1C2=O (stereo not drawn) [CMT-10, 4-dedimethylamino-7-dimethylaminotetracycline] | exhibited significant PLA2 -inhibitory activity | 30 µg/mL | found to inhibit | 66% |  |  |
|  | CC1(O)c2c(Cl)ccc(O)c2C(=O)C2=C(O)C3(O)C(=O)C(C(N)=O)=C(O)CC3CC21 (stereo not drawn) [CMT-4, 4-de-dimethylamino-7-chloro-tetracycline] | exhibited significant PLA2 -inhibitory activity | 42 µg/mL | found to inhibit |  | found to inhibit |  |
| 75.4 µM | NC(=O)C1=C(O)C2(O)C(=O)C3=C(O)c4c(O)cccc4CC3CC2CC1=O (stereo not drawn) [CMT-3, 6-demethyl-6-deoxy-4-de-dimethylaminotetracycline] | exhibited significant PLA2 -inhibitory activity |  | found to inhibit |  | found to inhibit |  |
|  | CC1(O)c2cccc(O)c2C(=O)C2=C(O)C3(O)C(=O)C(C(N)=O)=C(O)C(O)C3CC21 (stereo not drawn) [CMT-6, 4-hydroxy-4-dedimethylaminotetracycline] | exhibited significant PLA2 -inhibitory activity | 17 µg/mL | found to inhibit |  | found to inhibit |  |
|  | CN(C)C1C(=O)C(C#N)=C(O)C2(O)C(=O)C3=C(O)c4c(O)cccc4C(C)(O)C3CC12 (stereo not drawn) [CMT-2, tetracyclinonitrile] |  |  |  |  |  | lacked any PLA2 -inhibitory activity |
|  | CC1(O)c2cccc(O)c2C(=O)C2=C(O)C3(O)C(=O)C(C(N)=O)=C(O)CC3CC21 (stereo not drawn) [CMT-1, 4-dedimethylaminotetracycline] | exhibited significant PLA2 -inhibitory activity | 37 µg/mL | found to inhibit |  | found to inhibit |  |
